The record followed here is US20160106100A1, “MICROBICIDAL COMPOSITION COMPRISING AN ISOTHIAZOLONE AND AN AMINE OXIDE” (priority 2013, published 2016).

Type in all cases: cell-based
The test system of assay [1] is Aspergillus niger (DSM 12623). In words: MIC and synergy index of MIT + N,N-Dimethyldodecan-1-amine oxide in Sabouraud glucose agar. The settings on record: for Synergy Index (Qa/QA + Qb/QB): sole biocide. The protocol: The synergism of a combination of 2-Methyl-isothiazolinone (MIT) with N,N-Dimethyldodecan-l-amine oxide was tested. Test organisms used was the mould Aspergillus niger (DSM 12623). For the purpose of the test, mixtures containing different concentrations of MIT and N,N-Dimethyldodecan-1-amine oxide were prepared and tested for their action on Aspergillus niger. The active compound mixtures in the corresponding concentrations were introduced into selective nutrient media (Sabouraud glucose agar for Aspergillus niger and the test organisms were likewise incorporated into the agar. The cell density in the agar was in each case 3.7·10^6 spores per ml for Aspergillus niger. The incubation time is 72 hours at 25° C. This was followed by visual testing for growth of Aspergillus niger. The growth was apparent through the formation of colonies or mycelia on the surface of the agar. In this way the minimum inhibitory concentrations (MICs) of the two active compounds were determined, individually and in combination. The MIC is the concentration at which there is no formation of colonies or mycelia on the surface of the agar ( Aspergillus niger).
The synergism that occurred was presented numerically by calculation of the synergy index (SI). This calculation was made using the common method of F. C. Kull et al., Applied Microbiology, vol. 9 (1961), p. 538. SI is calculated there in accordance with the following formula:
Synergy index SI=Qa/QA+Qb/QB
If the synergy index has a value of more than 1, this means that there is an antagonism. If the synergy index adopts a value of 1, this means that the action of the two biocides is additive. If the synergy index takes on a value of below 1, this means that there is synergism of the two biocides.
Calculation of the synergy index of N,N-Dimethyldodecan-1-arnine oxide+MIT in respect of Aspergillus niger for an incubation time of 72 hours at 25° C.

The subject of assay [2] is Candida albicans (ATCC 10231). The experiment in a line: MIC and synergy index of MIT + N,N-Dimethyldodecan-1-amine oxide in Muller Hinton Broth. The settings on record: for MHK: alone, 72 hours at 25° C.; for Synergistic Index / Total: single biocide alone. The protocol:
Furthermore, the synergism of a combination of 2-Methyl-isothiazolinone (MIT) with N,N-Dimethyldodecan-1-amine oxide was tested using Candida albicans (ATCC 10231). For the purpose of the test, mixtures containing different concentrations of MIT and N,N-Dimethyldodecan-1-amine oxide were prepared and tested for their action on Candida albicans. The active compound mixtures in the corresponding concentrations were introduced into selective nutrient media (Muller Hinton Broth). The cell density in the broth was in each case 1.0-10^6 spores per ml. The incubation time is 72 hours at 25° C. This was followed by visual testing for growth of Candida albicans. In this way the minimum inhibitory concentrations (MICs) of the two active compounds were determined, individually and in combination. The synergism that occurred was presented numerically by calculation of the synergy index (SI).

A further assay has as its system Aspergillus niger. In words: MIC and synergy index of ternary mixture Benzalkoniumchloride, N,N-Dimethyldodecan-1-amine oxide and MIT. The settings on record: used alone. The protocol: In a further Experiment the synergy index of a ternary mixture of Benzalkoniumchloride, N,N-Dimethyldodecan-1-amine oxide and MIT was determined in respect of Aspergillus niger for an incubation time of 72 hours at 25 ° C.
The synergy of an active substance mixture that contains Benzalkoniumchloride in addition to N,N-Dimethyldodecan-1-amine oxide and MIT, against the microorganism Aspergillus niger is shown as in Table 4.

For `Cn1sccc1=O` [MIT, 2-methylisothiazolin-3-one], the MIC in assay [1] (as sole biocide, 72 hours at 25° C.) was 1000 (MIC) ppm. The “Synergy Index (Qa/QA + Qb/QB)” value in assay [1] is 1.00. In addition, in assay [2], the MHK was 125 ppm, the “Synergistic Index” value is 1.00 and the Total worked out at 125 ppm.

Turning to `CCCCCCCCCCCC[N+](C)(C)[O-]` [N,N-Dimethyldodecan-1-amine oxide], the MIC in assay [1] (Aspergillus niger, DSM12623, 72 h) came out at 231 µg/mL. In assay [1], the “Synergy Index (Qa/QA + Qb/QB)” value came to 1.00. In assay [2], the MHK is recorded as 50 ppm, the “Synergistic Index” value stood at 1.00 and the Total is reported as 50 ppm.

On to Benzalkoniumchloride [BAC], for which the “Synergistic Index” value in the assay with Aspergillus niger was 1.00. Also, the MHK with Aspergillus niger (72 hours at 25 ° C.) worked out at 80 ppm.
